In publication PMC11813147, “Bioactivity assessment of peptides derived from salted jellyfish (Rhopilema hispidum) byproducts” (PLOS ONE, 2025):

Tests used:
[1] = DPPH radical scavenging assay; format: biochemical; settings: supplement tables; for DPPH, mean±SD: n = 3
Procedure: The DPPH radical scavenging activity of the sample was assessed following a modified protocol based on a previous study. In each well of a 96-well plate, 10 μL of the sample was added, followed by 190 μL of 0.1 mM DPPH solution in 70% ethanol. The mixture was then incubated at room temperature in the dark for 30 min. After the incubation period, the absorbance of the mixture was measured at 517 nm. The DPPH radical scavenging activity was calculated using the following equation (1):
DPPHradicalscavengingactivity%=Acontrol–Asample/Acontrol×100 (1)
In this equation, Acontrol represents the absorbance of a control solution containing all reagents except for the test samples, while Asample is the absorbance of the mixture (the sample combined with 0.1 mM DPPH). To determine the Trolox equivalent antioxidant capacity (TEAC), a Trolox standard curve was utilized. The results were expressed as millimoles of Trolox equivalents per milligram of protein (mM TE/mg protein).

[2] = Ferric reducing antioxidant power (FRAP) assay; format: biochemical
Procedure: The FRAP assay was conducted following the method outlined by Rumpf et al.. The FRAP solution was prepared by mixing 300 mM acetate buffer (pH 3.6), 10 mM TPTZ (2,4,6-Tris(2-pyridyl)-s-triazine) in 40 mM hydrochloric acid, and 20 mM FeCl3 in a ratio of 10:1:1. In a 96-well plate, 10 μL of the sample was combined with 190 μL of the FRAP solution and incubated in the dark for 15 min. The absorbance of the mixture was then measured at 593 nm. FeSO4 was used to create the standard curve, and the results were expressed as millimoles of FeSO4 equivalent per milligram of protein (mM FeSO4/mg protein).

[3] = test system: angiotensin I-converting enzyme (ACE); assay: ACE inhibitory activity assay (fluorometric ACE activity assay kit); format: biochemical; settings: peptide sample 1 mg/mL; for ACE inhibitory activity, mean±SD / inhibition: 37 °C, fluorescence ex 320/em 405 nm, n = 3, mean ± SD, SD
Procedure: The ACE inhibitory activity assay was performed following the method outlined by Batista et al., with slight modifications, using a fluorometric angiotensin I-converting enzyme (ACE) activity assay kit from Sigma-Aldrich (catalog number CS0002), Burlington, Massachusetts, USA. In summary, 10 µ L of the sample (1 mg/mL for the peptide sample and 50 µg/mL for ramipril) was combined with 40 µ L of the ACE solution (CS0002B) in 96-well flat-bottom black plates at 37 °C for 5 min. Next, 50 µ L of the substrate solution (CS0002C) was added to this mixture to initiate the reaction. A fluorescence multiwell plate reader was used to monitor the changes in fluorescence. The sample’s fluorescence was measured every min for 5 min, with excitation at 320 nm and emission at 405 nm. All reagents, except the test sample, were prepared to assess the ACE positive control activity. A kit standard solution (CS0002D) was diluted with assay buffer (CS0002A) to create different concentrations (nmol) of the standard solution, allowing generation of a standard curve. The slope of the standard curve (RFU/nmol) and the slope of the sample kinetic curve were utilized to calculate the ACE activity using the following equation (3):
ACEactivitynmol/min=Slopesample/Slopestandard×DF (3)
Where Slopesample refers to the slope of the blank-subtracted sample curve (RFU/min), Slopestandard refers to the slope of the blank-subtracted standard curve (RFU/nmol), DF is the dilution factor, and 0.1 nmol/min is equivalent to […].
In this study, the results of ACE inhibitory activity are expressed as percentages. The ACE inhibitory activity (%) was calculated using the following equation (4):
ACEinhibitoryactivity%=ACEPC–ACES/ACEPC×100 (4)
Where ACEPC represents the ACE activity of the positive control, and ACES denotes the ACE activity of the sample.

RAW 264.7 = assay: Anti-inflammation assay: released NO in LPS-stimulated RAW 264.7 (Griess); format: cell-based, Murine; settings: then 1 µg/mL LPS 24 h; for Released NO: peptide 10 µg/mL 1 h; for Released NO, mean±SD: peptide 10 µg/mL pre-treatment 1 h, Griess reagent, n = 3
Procedure: Murine macrophage cells (RAW 264.7; ATCC TIB-71™) were cultured in Dulbecco’s Modified Eagle’s Medium (DMEM) that was supplemented with 10% heat-inactivated fetal bovine serum (FBS) and 1% antibiotic solution. Colorectal adenocarcinoma cells (CaCo-2; ATCC HTB 37™) were cultured in Eagle’s Minimum Essential Medium (EMEM), also supplemented with 10% heat-inactivated FBS and 1% antibiotic solution. Both cell types were maintained in a humidified incubator with 5% CO2. The cell culture medium was refreshed every three days.
The anti-inflammation assay was conducted following the method described by Barzkar et al. with slight modifications. RAW 264.7 (1 x 10^5 cells) was seeded into a 96-well plate to allow for cell attachment. After 24 h, the cells were pre-treated with fresh medium containing peptide samples at a concentration of 10 µg/mL for 1 h. Subsequently, the treated cells were stimulated with 1 µg/mL lipopolysaccharide (LPS) for an additional 24 h. Unstimulated cells were included as a negative control. At the end of the treatment period, the conditioned medium was collected for the determination of released nitric oxide (NO). Griess’s reagent (Promega) was utilized to measure the NO concentration, following the manufacturer’s instructions. A NO calibration curve was generated to quantify the released NO in the conditioned medium.

[4] = ABTS radical scavenging assay; format: biochemical; settings: supplement tables; for ABTS, mean±SD: n = 3
Procedure: The ABTS radical scavenging activity of the sample was measured using a method adapted from Mirzaei et al.. The ABTS radical was generated by mixing 7 mM ABTS with 2.45 mM potassium persulfate in a 1:1 ratio and incubating the mixture in the dark at room temperature for 12 to 16 h. The resulting solution was then diluted to achieve an absorbance of 0.74 ± 0.03 at 734 nm, using deionized water for adjustments. Next, 10 μL of the sample was added to 190 μL of the ABTS solution. The mixture was incubated in the dark for 7 min, after which the absorbance was measured at 734 nm. The ABTS radical scavenging activity (%) was calculated using the following equation (2):
ABTSradicalscavengingactivity%=Acontrol–Asample/Acontrol×100 (2)
In this equation, Acontrol refers to the absorbance of the control solution (which contains all reagents except the test samples), while Asample refers to the absorbance of the mixture containing the sample and the ABTS solution. To determine the Trolox equivalent antioxidant capacity (TEAC), a Trolox standard curve was used, and the results were expressed as millimoles of Trolox equivalents per milligram of protein (mM TE/mg protein).

[5] = 10 µL sample + 190 µL FRAP solution, 15 min dark, 593 nm, FeSO4 standard curve, mean ± SD, n = 3, SD

Sequence | DPPH, mean±SD [1] | DPPH ([1]; replicate 1) [TE/mg protein] | DPPH ([1]; replicate 2) [TE/mg protein] | DPPH ([1]; replicate 3) [TE/mg protein] | FRAP [2, 5] | FRAP ([2]; supplement tables, replicate 1) [mM FeSO4/mg protein] | FRAP ([2]; supplement tables, replicate 2) [mM FeSO4/mg protein] | FRAP ([2]; supplement tables, replicate 3) [mM FeSO4/mg protein] | ACE inhibitory activity, mean±SD [3] | ACE inhibitory activity ([3]; replicate 1) [%] | ACE inhibitory activity ([3]; replicate 2) [%] | ACE inhibitory activity ([3]; replicate 3) [%] | Released NO (RAW 264.7; replicate 1) [µM] | Released NO (RAW 264.7; replicate 2) [µM] | Released NO (RAW 264.7; replicate 3) [µM] | Released NO, mean±SD (RAW 264.7) | ABTS, mean±SD [4] | ABTS ([4]; replicate 1) [TE/mg protein] | ABTS ([4]; replicate 2) [TE/mg protein] | ABTS ([4]; replicate 3) [TE/mg protein] | further results
DAENKENVEE [P18, synthesized peptide identified from jellyfish fraction PUR20C] | 6.03±0.79^D TE/mg protein | 5.23 | 6.03 | 6.82 | 4.40±0.43^H mM FeSO4/mg protein | 4.89 | 4.05 | 4.26 | 22.80±2.33^G % | 20.13 | 23.85 | 24.42 | 34.13 | 31.37 | 31.03 | 32.18±1.70^F µM | 6.05 TE/mg protein | 5.71 | 5.51 | 6.91 | –
EIDKLPPESRP [P7, synthesized peptide identified from jellyfish fraction PUR20C] | 1.96 TE/mg protein | 1.52 | 1.78 | 2.58 | 12.40±1.36^C mM FeSO4/mg protein | 11.00 | 13.73 | 12.47 | – | 8.11 | 8.96 | 8.96 | 35.51 | 37.58 | 33.79 | 35.63 ± 1.89 µM | 1.64 TE/mg protein | 1.71 | 1.71 | 1.50 | inhibition [3]: 8.68 ± 0.49%
EQIYPMGEGDEL [P4, synthesized peptide identified from jellyfish fraction PUR20C] | 3.81±0.30^E TE/mg protein | 3.64 | 3.64 | 4.17 | 8.40 mM FeSO4/mg protein | 8.89 | 8.47 | 7.84 | 5.15±0.92^J % | 5.53 | 4.10 | 5.82 | 38.96 | 35.86 | 36.55 | 37.12 µM | 103.41±1.20^F TE/mg protein | 103.28 | 102.27 | 104.68 | –
GKNCGETVWE [P9, synthesized peptide identified from jellyfish fraction PUR20C] | 40.86±0.85^C TE/mg protein | 40.24 | 41.83 | 40.51 | 13.03±0.8^C mM FeSO4/mg protein | 13.31 | 13.73 | 12.05 | – | 5.53 | 8.68 | 8.39 | 35.86 | 36.20 | 34.82 | 35.63 ± 0.71 µM | 103.21±2.27^F TE/mg protein | 105.08 | 100.67 | 103.88 | inhibition [3]: 7.53 ± 1.74%
HSVLTASYRN [P5, synthesized peptide identified from jellyfish fraction PUR20C] | 3.20 TE/mg protein | 2.84 | 3.11 | 3.64 | 8.19 mM FeSO4/mg protein | 7.63 | 9.52 | 7.42 | 29.10±3.81^F % | 24.71 | 31.01 | 31.58 | 34.13 | 33.44 | 36.20 | 34.59 ± 1.43 µM | 123.24±0.75^C TE/mg protein | 124.11 | 122.71 | 122.91 | –
KFNEVVYFL [P15, synthesized peptide identified from jellyfish fraction PUR20C] | 6.20±1.00^D TE/mg protein | 5.49 | 5.76 | 7.35 | 4.61±0.73^H mM FeSO4/mg protein | 3.84 | 4.68 | 5.31 | 55.43±3.55^C % | 57.63 | 51.33 | 57.34 | 32.75 | 32.75 | 34.82 | 33.44 µM | 131.66±1.15^B TE/mg protein | 132.32 | 130.32 | 132.32 | –
